Test results as given in US4783482A, “Bis(thiocyanato)palladium(II)complexes” (Engelhard Corporation, priority 1985, dated 1988).

Legend:
S180 ascites [1] = assay: Anti-tumor evaluation: % increase in life span (% ILS) and survivors, S180 ascites in female CFW Swiss mice; type: in vivo; details: for Best % ILS: best over doses
Description: The above-prepared compounds were evaluated against S180 ascites in female CFW Swiss mice. The mice were weighed (average weight: 20 g), placed into cages (four or six mice to a cage), and on day zero the mice were inoculated with 0.2 ml of a freshly prepared saline suspension (0.15 M NaCl) containing 1×10^7 tumor cells/ml or a total of 2×10^6 cells This inoculum was freshly prepared using "transfer" mice, which had been injected with tumor cells the previous week; it was obtained via the following steps: (1) the removal of cells from the peritoneal cavity of the sacrificed transfer mouse, (2) alternate centrifugation and washing operations (2-3 times with cold saline) to remove blood and other components, and (3) dilution of the volume of the packed cell with saline (1:3). A final centrifugation was carried out at 1000 RPM over a two minute period. A cell count was made on a 2,000-fold dilution of this 1:3 suspension by means of a Coulter Counter. A final dilution to 1×10^7 cells/ml was made, based on the average count.
On day 1, solutions of the test compounds were prepared, and each mouse in a set of four or six were injected with the same test compound at the same dosage. The doses were based on the average weight of the animals (cage weight). Also, beginning on day 1, two controls were employed containing six mice per control:
(1) Normal Control: This consisted solely of the carrier or diluent used in combination with the test compound; and
(2) Positive Control: This consisted solely of known anti-tumor agent cis-[Pt(NH3)2 Cl2 ] in saline (8 mg/kg) to test the response of the biological system.
The effectiveness of a test compound was measured in terms of the % increase in life span (%ILS) of the test mice relative to the Normal Control (Calculated from the day of tumor inoculation, i.e., day zero). To standardize the test data and permit intercomparisons, the day of evaluation was arbitrarily taken as that day corresponding to twice the mean life span (or average day of death) of the control. This established a practical upper limit of 100% on the %ILS attainable. For calculation purposes, the survivors of the day of evaluation were considered to have died on that day. The %ILS was calculated as follows: [formula] ILS values in excess of 50% were interpreted as antitumor activity, whereas values in excess of 75% indicated excellent antitumor activity.
All test compounds were evaluated in water containing 0.1-0.3% of the suspending agent "Klucel" (hydroxypropylcellulose).
Tables 3 and 4, infra, show the criticality of the ring size and the thiocyanato substituents, respectively. The protocols for determining effectiveness for the products in Tables 3 and 4 were identical to the procedure employed for determining the anti-tumor effectiveness of the products in Table 2.

S180 Ascites [2] = assay: ED90, LD50 and therapeutic index, S180 ascites; type: in vivo, mice; set-up: ED90: unit not given here; details: dose which causes a 50% increase in life span in 90% of the mice, determined graphically
Description: The effective dose (ED90), lethal does (LD50) and therapeutic index (TI) were determined, via the method of Miller and Taiter (Reported by R. A. Turner, "Screening Methods in Pharmacology", Academic Press, New York, pages 61-62 (1976)).
In this study, ED90 represents the dose which causes a 50% increase in life span (ILS) in 90% of the test animals (mice), determined graphically. The LD50 value represents the lethal dose in 50% of said animals.

[3] = dose 5 mg/kg, on day of evaluation (twice mean life span of control)
[4] = dose 10 mg/kg, on day of evaluation
[5] = dose 20 mg/kg, on day of evaluation
[6] = dose 40 mg/kg, on day of evaluation
[7] = dose 80 mg/kg, on day of evaluation
[8] = dose 160 mg/kg, on day of evaluation
[9] = dose 320 mg/kg, on day of evaluation

SMILES	Best % ILS (S180 ascites [1]) [%]	% ILS (S180 ascites [1]; dose 5 mg/kg) [%]	Survivors (S180 ascites [1]; [3])	% ILS (S180 ascites [1]; dose 10 mg/kg) [%]	Survivors (S180 ascites [1]; [4])	% ILS (S180 ascites [1]; dose 20 mg/kg) [%]	Survivors (S180 ascites [1]; [5])	% ILS (S180 ascites [1]; dose 40 mg/kg) [%]	Survivors (S180 ascites [1]; [6])	% ILS (S180 ascites [1]; dose 80 mg/kg) [%]	Survivors (S180 ascites [1]; [7])	% ILS (S180 ascites [1]; dose 160 mg/kg) [%]	Survivors (S180 ascites [1]; [8])	% ILS (S180 ascites [1]; dose 320 mg/kg) [%]	Survivors (S180 ascites [1]; [9])	ED90 (S180 Ascites [2])
CC1C[NH][Pd]([S]C#N)([S]C#N)[NH]1 (centres unmarked) [Ex. 2, Bis(Thiocyanato)-1,2-Diaminopropanepalladium(II)]	59	16	0 of 6	13	0 of 6	17	0 of 6	59	2 of 6	-21	1 of 6	-74	0 of 6			
N#C[S][Pd][S]C#N.NCCCCN [Comp. Ex. B, bis(thiocyanato)-1,4-diaminobutanepalladium(II)]				-1	0 of 6	15	0 of 6	-4	0 of 6	-21	0 of 5	47	0 of 5	2	0 of 5	
Nc1ccccc1N.O=N[O-].O=N[O-].[Pd+2] [Comp. Ex. I, dinitro(o-phenylenediamine)palladium(II)]				21	0 of 4	3	0 of 4	29	1 of 4	19	0 of 4					
N#C[S][Pd-2]1([S]C#N)[NH2+]CCC[NH2+]1 [Comp. Ex. A, bis(thiocyanato)-1,3-diaminopropanepalladium(II)]				1	0 of 4	9	0 of 4	-4	0 of 4	-70	0 of 4	-88	0 of 4	-93	0 of 4	
N#C[S][Pd]1([S]C#N)[NH]c2ccccc2[NH]1 [Ex. 5, Bis(Thiocyanato)-o-Phenylenediaminepalladium(II)]	81			14	0 of 4	15	0 of 4	27	0 of 4	81	2 of 4	79	1 of 4	-73	0 of 4	130
N#C[S][Pd-2]1([S]C#N)[NH2+]c2cccc3cccc(c23)[NH2+]1 [Comp. Ex. D, bis(thiocyanato)-1,8-diaminonaphthalenepalladium(II)]				-11	0 of 6	-9	0 of 6	-11	0 of 6	-19	0 of 6	-28	0 of 6	48	1 of 6	
NCCN.[I-].[I-].[Pd+2] [Comp. Ex. L, Diiodo(ethylenediamine)palladium(II)]		-17	0 of 4	-13	0 of 4	-9	0 of 4	-11	0 of 4	24	0 of 4	32	1 of 4			
N#C[S][Pd]1([S]C#N)[NH]CC(O)C[NH]1 [Comp. Ex. C, bis(thiocyanato)-1,3-diamino-2-propanolpalladium(II)]				-4	0 of 6	-7	0 of 6	-8	0 of 6	-76	0 of 6	-87	0 of 6	-92	0 of 6	
[I][Pd]1([I])[NH]C2CCCCC2[NH]1 (centres unmarked) [Comp. Ex. M, Diiodo(1,2-Diaminocyclohexane)palladium(II)]		-4	0 of 4	-9	0 of 4	-20	0 of 4	-15	0 of 4	-16	0 of 4	77	1 of 4			
NCCN.O=N[O-].O=N[O-].[Pd+2] [Comp. Ex. F, Dinitro(Ethylenediamine)palladium(II)]				2	0 of 4	6	0 of 4	-15	0 of 4	-59	0 of 4	-87	0 of 4			
N#C[S-].N#C[S-].NCCN.[Pd+2] [Ex. 1, Bis(Thiocyanato)ethylenediaminepalladium(II)]	79			2	0 of 4	18	0 of 4	79	0 of 4	2	1 of 4	-87	0 of 4	-87	0 of 4	
C[NH+]1CC[NH+](C)[Pd-2]1([S]C#N)[S]C#N (centres unmarked) [Ex. 4, Bis(Thiocyanato)-N,N'-Dimethylethylenediaminepalladium(II)]	62	-2	0 of 6	1	0 of 6	-5	0 of 6	18	1 of 6	62	2 of 6	-45	1 of 6			
NC1CCCCC1N.O=[N+]([O-])[Pd][N+](=O)[O-] (centres unmarked) [Comp. Ex. H, Dinitro(1,2-diaminocyclohexane)palladium(II)]				12	0 of 4	3	0 of 4	-3	0 of 4	21	0 of 4					
NCCCN.O=[N+]([O-])[Pd][N+](=O)[O-] [Comp. Ex. G, dinitro(1,3-diaminopropane)palladium(II)]				13	0 of 4	16	0 of 4	27	0 of 4	0	1 of 4	-89	0 of 4			
N#C[S-].N#C[S-].NCC(=O)CN.[Pd+2] [Comp. Ex. E, Bis(Thiocyanato)diaminoacetonepalladium(II)]		3	0 of 4	8	0 of 4	13	0 of 4	3	0 of 4	1	0 of 4	13	0 of 4			
